The record followed here is patent publication US11285133B2, “2- or 3-imidazolines as carbapenemases inhibitors” (priority 2017, dated 2022).

Marks after values point to notes of the source that are not given here.

What all share (assay type): biochemical
For one assay, the target named is OXA-48 Enzyme (Klebsiella pneumoniae, UniProt Q6XEC0). Briefly: Imipenem hydrolysis monitored by UV absorbance slope, OXA-48 enzyme. Particulars: for OXA-48 Enzyme Inhibition at 10 μM: 10 μM compound; for inhibition at 10 µM: read-out: OXA-48 Enzyme Inhibition at 10 μM. As to the method: (§1) These tests are conducted by comparing UV absorbance slope measurements of impenem alone, and then imipenem with the concerned 3-imidazolines at given concentrations in the presence of the enzyme. It was thus possible to monitor the hydrolysis of imipenem. Lower the value of the slope, the higher is the percentage of inhibition of the enzyme.

The next assay addresses KPC Enzyme (Klebsiella pneumoniae, UniProt Q9F663). Briefly: Imipenem hydrolysis monitored by UV absorbance slope, KPC enzyme. Particulars: for KPC Enzyme percentage of inhibition at 10 μM: 10 μM compound, starred cells in the IC50 column, ND = Not Detectable (at 10 μM); for inhibition at 10 µM: read-out: KPC Enzyme percentage of inhibition at 10 μM. The method, then:
as §1

A further assay concerns the target NDM-1 Enzyme (Klebsiella pneumoniae, UniProt C7C422). Briefly: Imipenem hydrolysis monitored by UV absorbance slope, NDM-1 enzyme. Particulars: 10 μM compound, starred cells in the IC50 column. The method, then:
as §1

Sequence of KPC Enzyme (Q9F663 25-293, looked up): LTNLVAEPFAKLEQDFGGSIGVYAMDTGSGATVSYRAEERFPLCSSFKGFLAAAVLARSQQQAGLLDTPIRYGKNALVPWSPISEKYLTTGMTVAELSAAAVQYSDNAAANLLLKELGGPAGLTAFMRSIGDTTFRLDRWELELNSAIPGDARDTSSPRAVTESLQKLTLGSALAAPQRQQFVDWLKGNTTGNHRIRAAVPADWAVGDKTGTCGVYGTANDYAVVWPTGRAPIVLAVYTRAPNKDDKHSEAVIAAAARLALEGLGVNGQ
Sequence of OXA-48 Enzyme (Q6XEC0 23-265 limits assumed): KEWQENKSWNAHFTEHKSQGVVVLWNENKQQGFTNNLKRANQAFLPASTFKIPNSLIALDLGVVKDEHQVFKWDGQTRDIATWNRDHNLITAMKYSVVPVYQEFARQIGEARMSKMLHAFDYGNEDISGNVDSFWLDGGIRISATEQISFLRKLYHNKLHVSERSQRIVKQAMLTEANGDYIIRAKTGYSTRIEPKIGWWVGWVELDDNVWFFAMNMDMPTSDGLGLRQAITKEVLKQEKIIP
Sequence of NDM-1 Enzyme (C7C422 29-270, looked up, species assumed): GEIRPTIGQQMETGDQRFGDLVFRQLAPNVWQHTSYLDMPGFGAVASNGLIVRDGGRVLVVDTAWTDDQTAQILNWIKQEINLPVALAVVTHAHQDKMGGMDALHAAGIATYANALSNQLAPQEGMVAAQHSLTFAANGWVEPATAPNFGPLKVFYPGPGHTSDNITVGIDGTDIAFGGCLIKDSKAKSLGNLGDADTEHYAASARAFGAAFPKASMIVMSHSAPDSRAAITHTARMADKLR

As to `CC1C(c2ccccc2)=NC(c2ccccc2)N1c1ccc(Cl)cc1` (centres unmarked) [Compound 16], at OXA-48 Enzyme, the “OXA-48 Enzyme Inhibition at 10 μM” value was “Not Detectable”. The “KPC Enzyme percentage of inhibition at 10 μM” value at KPC Enzyme turned out to be 18%*.
One may read the inhibition as the percentage by which the read-out fell short of the control. As to `C/C(=N\c1ccc(Cl)cc1)C1(c2ccc(Cl)cc2)N=C(c2ccc(Cl)cc2)N(c2ccc(Cl)cc2)C1C` (centres unmarked) [Compound 28], at OXA-48 Enzyme, the inhibition at 10 µM is 31%.
Consider `COc1ccc(C2N=C(c3ccccc3)C(C)N2c2ccc(OC)cc2)cc1` (centres unmarked) [Compound 3], for which the inhibition at 10 µM at OXA-48 Enzyme turned out to be 11%.
As to `COc1ccc(C2N=C(c3ccccc3)C(C)N2c2ccccc2)cc1` (centres unmarked) [Compound 1], at OXA-48 Enzyme, the inhibition at 10 µM was determined as 9%.
On to `CC1C(c2ccc(Cl)cc2)=NC(c2ccc(Cl)cc2)N1c1ccccc1` (centres unmarked) [Compound 18], for which the “OXA-48 Enzyme Inhibition at 10 μM” value on OXA-48 Enzyme was “Not Detectable”. For the same compound, the “KPC Enzyme percentage of inhibition at 10 μM” value on KPC Enzyme was 14%*.
`CC1C(c2ccccc2)=NC(c2ccccc2)N1c1ccccc1` (centres unmarked) [Compound 13]: the “OXA-48 Enzyme Inhibition at 10 μM” value on OXA-48 Enzyme is on record as “Not Detectable”. For the same compound, the “KPC Enzyme percentage of inhibition at 10 μM” value on KPC Enzyme came to 23%*.
In the case of `COc1ccc(C2=NC(c3ccccc3)N(c3ccc(OC)cc3)C2C)cc1` (centres unmarked) [Compound 11], at OXA-48 Enzyme, the “OXA-48 Enzyme Inhibition at 10 μM” value is recorded as “Not Detectable”. The “NDM-1 Enzyme percentage of inhibition at 10 μM” value at NDM-1 Enzyme is given as 20%*.
In the case of `C/C(=N\c1ccc(Br)cc1)C1(c2ccc(Cl)cc2)N=C(c2ccc(Cl)cc2)N(c2ccc(Br)cc2)C1C` (centres unmarked) [Compound 29], on OXA-48 Enzyme, the inhibition at 10 µM was determined as 36%.
For `COc1ccc(C2=NC(c3ccc(OC)cc3)N(c3ccccc3)C2C)cc1` (centres unmarked) [Compound 9], the “OXA-48 Enzyme Inhibition at 10 μM” value at OXA-48 Enzyme is “Not Detectable”. Besides, the inhibition at 10 µM on KPC Enzyme was 40%.
For `CC1C(c2ccccc2)=NC(c2ccccc2)N1c1ccc(Br)cc1` (centres unmarked) [Compound 15], on OXA-48 Enzyme, the “OXA-48 Enzyme Inhibition at 10 μM” value is “Not Detectable”.
Regarding `COc1ccc(C2=NC(c3ccc(OC)cc3)N(c3ccc(OC)cc3)C2C)cc1` (centres unmarked) [Compound 7], the “OXA-48 Enzyme Inhibition at 10 μM” value at OXA-48 Enzyme is “Not Detectable”. Besides, at KPC Enzyme, the “KPC Enzyme percentage of inhibition at 10 μM” value worked out at 18%*.
With `COc1ccc(N2C(C)C(c3ccc(Cl)cc3)=NC2c2ccc(Cl)cc2)cc1` (centres unmarked) [Compound 12], the “OXA-48 Enzyme Inhibition at 10 μM” value at OXA-48 Enzyme is on record as “Not Detectable”. Moreover, at KPC Enzyme, the inhibition at 10 µM came out at 50%.
On to `COc1ccc(C2=NC(c3ccccc3)N(c3ccccc3)C2C)cc1` (centres unmarked) [Compound 8], for which, at OXA-48 Enzyme, the “OXA-48 Enzyme Inhibition at 10 μM” value was “Not Detectable”. Also, on KPC Enzyme, the “KPC Enzyme percentage of inhibition at 10 μM” value worked out at 23%*.
Take `CC1C(c2ccc(Cl)cc2)=NC(c2ccc(Cl)cc2)N1c1ccc(Cl)cc1` (centres unmarked) [Compound 19]: on OXA-48 Enzyme, the “OXA-48 Enzyme Inhibition at 10 μM” value worked out at 50%.
Take `C/C(=N\c1ccccc1)C1(c2ccc(Cl)cc2)N=C(c2ccc(Cl)cc2)N(c2ccccc2)C1C` (centres unmarked) [Compound 24]: the inhibition at 10 µM at OXA-48 Enzyme was 38%.
As to `CC1C(c2ccccc2)=NC(c2ccccc2)N1c1ccc(I)cc1` (centres unmarked) [Compound 14], the “OXA-48 Enzyme Inhibition at 10 μM” value on OXA-48 Enzyme was “Not Detectable”.
With `C/C(=N\c1ccc(Cl)cc1)C1(c2ccccc2)N=C(c2ccccc2)N(c2ccc(Cl)cc2)C1C` (centres unmarked) [Compound 26], on OXA-48 Enzyme, the inhibition at 10 µM was determined as 22%.
For the compound `COc1ccc(C2N=C(c3ccccc3)C(C)N2c2ccc(Br)cc2)cc1` (centres unmarked) [Compound 6], the “OXA-48 Enzyme Inhibition at 10 μM” value on OXA-48 Enzyme is reported as “Not Detectable”. Also, at NDM-1 Enzyme (read-out: NDM-1 Enzyme percentage of inhibition at 10 μM), the inhibition at 10 µM amounted to 20%.
As for `C/C(=N\c1ccc(Br)cc1)C1(c2ccccc2)N=C(c2ccccc2)N(c2ccc(Br)cc2)C1C` (centres unmarked) [Compound 27], the inhibition at 10 µM on OXA-48 Enzyme came to 38%.
As for `C/C(=N\c1ccccc1)C1(c2ccccc2)N=C(c2ccccc2)N(c2ccccc2)C1C` (centres unmarked) [Compound 25], at OXA-48 Enzyme, the “OXA-48 Enzyme Inhibition at 10 μM” value is given as “Not Detectable”. In addition, the inhibition at 10 µM at KPC Enzyme is 30%.
For `COc1ccc(N2C(C)C(c3ccccc3)=NC2c2ccccc2)cc1` (centres unmarked) [Compound 17], the “OXA-48 Enzyme Inhibition at 10 μM” value at OXA-48 Enzyme is reported as “Not Detectable”. Further, the “KPC Enzyme percentage of inhibition at 10 μM” value on KPC Enzyme was determined as 17%*.
On to `COc1ccc(C2N=C(c3ccccc3)C(C)N2c2ccc(Cl)cc2)cc1` (centres unmarked) [Compound 4], for which, at OXA-48 Enzyme, the “OXA-48 Enzyme Inhibition at 10 μM” value was “Not Detectable”.
Take `COc1ccc(C2N=C(c3ccccc3)C(C)N2c2ccc(I)cc2)cc1` (centres unmarked) [Compound 2]: at OXA-48 Enzyme, the inhibition at 10 µM was found to be 9%.
`COc1ccc(C2N=C(c3ccccc3)C(C)N2c2ccc(C(F)(F)F)cc2)cc1` (centres unmarked) [Compound 5]: at OXA-48 Enzyme, the inhibition at 10 µM is 19%.
